Experimental findings from patent publication US11358947B2, “Substituted 2-acylamino-cycloalkylthiophene-3-carboxylic acid arylamides as inhibitors of calcium-activated chloride channel TMEM16A” (THE REGENTS OF THE UNIVERSITY OF CALIFORNIA, priority 2017, dated 2022) are described below.

“Also recorded” adds a separate entry of the source.

The target of one data set is T1, TMEM16B (Homo sapiens, UniProt Q9NQ90).
T1 construct: expressed in transfected cells; host or cells: Fischer Rat Thyroid (FRT) cells co-expressing YFP
T1 sequence (Q9NQ90 1-998): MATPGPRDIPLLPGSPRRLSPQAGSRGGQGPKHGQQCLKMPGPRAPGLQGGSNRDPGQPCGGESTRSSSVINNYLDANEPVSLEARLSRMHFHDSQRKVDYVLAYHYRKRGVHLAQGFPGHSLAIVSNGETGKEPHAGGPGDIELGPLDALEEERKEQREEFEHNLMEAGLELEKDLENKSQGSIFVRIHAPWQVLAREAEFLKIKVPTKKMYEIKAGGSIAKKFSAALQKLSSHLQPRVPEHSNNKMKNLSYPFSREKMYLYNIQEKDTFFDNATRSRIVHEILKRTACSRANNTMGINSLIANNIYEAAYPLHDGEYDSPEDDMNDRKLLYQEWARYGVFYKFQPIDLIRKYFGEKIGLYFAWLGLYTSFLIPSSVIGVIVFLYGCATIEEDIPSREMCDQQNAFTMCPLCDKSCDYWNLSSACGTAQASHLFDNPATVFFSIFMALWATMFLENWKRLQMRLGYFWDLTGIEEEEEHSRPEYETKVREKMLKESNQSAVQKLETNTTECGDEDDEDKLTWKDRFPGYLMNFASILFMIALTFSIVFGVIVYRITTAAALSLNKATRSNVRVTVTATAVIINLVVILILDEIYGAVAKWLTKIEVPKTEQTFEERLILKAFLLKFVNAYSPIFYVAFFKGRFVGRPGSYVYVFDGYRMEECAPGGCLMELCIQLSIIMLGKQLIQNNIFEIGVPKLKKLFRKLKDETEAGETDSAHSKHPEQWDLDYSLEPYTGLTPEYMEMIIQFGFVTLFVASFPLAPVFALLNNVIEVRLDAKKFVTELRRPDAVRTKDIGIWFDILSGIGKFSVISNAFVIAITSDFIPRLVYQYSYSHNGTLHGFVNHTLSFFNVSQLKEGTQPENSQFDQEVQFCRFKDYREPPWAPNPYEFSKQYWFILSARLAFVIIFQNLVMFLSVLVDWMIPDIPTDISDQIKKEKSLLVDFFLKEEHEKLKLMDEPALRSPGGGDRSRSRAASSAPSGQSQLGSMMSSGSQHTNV
In words: TMEM16B fluorescence plate reader assay in FRT cells. It counts as cell-based. The protocol: (§1) Concentration-dependent inhibition of TMEM16A measured by short-circuit current assay; TMEM16B and non-TMEM16 anion conductance measured using a fluorescence plate reader assay using FRT and HT-29 cells respectively; cell viability measured in FRT null cells.
(§2) We further assayed the compound potency on endogenous non-TMEM16A. Ca^2+-activated Cl^− channel in HT-29 cells.
TMEM16A functional assay. TMEM16A functional plate-reader assay was done as previously described. […] Test compounds (0.5 μl in DMSO) were added to each well at specified concentration. […] The initial rate of I− influx following each of the solution additions was computed from fluorescence data by nonlinear regression. TMEM16B activity was assayed similarly as described using FRT cells co-expressing YFP and TMEM16B.

The test system of data set [1] is non-TMEM16A Ca2+-activated Cl- channel in HT-29 cells. The data set is described as follows: Non-TMEM16A CaCC plate reader assay in HT-29 cells expressing YFP. Conditions: Homo sapiens, non-TMEM16 anion conductance, fluorescence plate reader assay. In kind it is cell-based. The protocol:
as §1, §2
Plate reader assays of chloride channel function, CFTR inhibition was assayed as described. […] Activity of non-TMEM16A CaCC was assayed as described in HT-29 cells expressing YFP.

Data set [2] in a line: Pharmacokinetics in rats, serum concentration after IP or oral dosing. It counts as in vivo. Conditions: rat. The protocol: The pharmacokinetics of compounds according to certain embodiments was studied in rats. […] After treatments blood samples were collected by tail vein puncture at specified time points (15, 30, 60, 120 and 180 min). Serum was separated by centrifuging blood samples at 5000 rpm for 15 min. […] The aliquot was then diluted to a total of 2 mL in PBS. A C18 solid-phase extraction (SPE) column (Thermo Fisher, Waltham, Mass.) was conditioned with methanol (2 mL) and PBS (2 mL). The aliquot was loaded onto the conditioned SPE column, and washed with PBS (2 mL) followed by water (2 mL), and the column then dried under vacuum for 5 min. Analytes were eluted with ethyl acetate (3 mL), and concentrated by rotary evaporation. The residues were reconstituted into methanol (150 μL), and then analyzed using a hybrid quadrupole Q-Exactive Orbitrap mass analyzer (Thermo Fisher, Waltham, Mass.), with an electrospray ionization source, employing parallel-reaction monitoring (PRM) to provide high analytical sensitivity.

Data set [3] concerns rat made hypertensive with phenylephrine. The data set is described as follows: Blood pressure in anesthetized rat made hypertensive with phenylephrine. It counts as in vivo. To be noted: phenylephrine 0.25 mg IV, then 0.3 mg compound IV, femoral artery catheter. The protocol: TMEM16A is expressed in vascular smooth muscle and its inhibition may reduce blood pressure. […] Blood pressure was measured by femoral artery catheter.

A further data set deals with mouse ileum. In words: Ex vivo intestinal contractility of mouse ileum. To be noted: increasing concentrations added to bath. The protocol:
The effect of a compound according to one embodiment on intestinal contractility was determined in an ex vivo preparation of mouse ileum. Adult mice (CD1 genetic background) were euthanized by avertin overdose (200 mg/kg, 2,2,2-tribromethanol, Sigma-Aldrich) and ileal segments of ˜2 cm length were isolated and washed with Krebs-Henseleit buffer (pH 7.4, in mM: 118 NaCl, 4.7 KCl, 1.2 MgSO4, 1.2 KH2PO4, 25 NaHCO3, 2.5 CaCl2, 11 D-glucose). […] Tissues were stabilized for 60 min with resting tension of 0.5 g and solutions were changed every 15 min.

Data set [4] is described as follows: In vitro metabolic stability with rat liver microsomes and NADPH. It counts as in vitro ADME. The protocol:
(3B) LC/MS traces showing total ion counts as a function of incubation time.
These compounds were incubated with rat liver microsomes and NADPH, and non-metabolized compounds were quantified by ESI-LCMS. […] It is speculated that Ani-9 could be oxidized at the aryl methyl or N—N bond; or hydrolyzed at the amide or hydrazone linkages.
Compounds (each 10 uM) were incubated for specific time points (2, 5, 15, 30, 60, 180 min) with shaking at 37° C. with rat liver microsomes (1 mg protein/mL, Sigma-Aldrich, St. Louis, Mo.) in potassium phosphate butler (100 mM) containing 1 mM NADPH. The mixture was then chilled on ice, and 0.5 mL of ice-cold ethyl acetate was added. Samples were centrifuged for 15 min at 3000 RPM. The supernatant was evaporated to dryness, and the residue was dissolved in 80 μL of mobile phase (acetonitrile:/water, 3:1, containing 0.1% formic acid) for LC/MS. Reverse-phase HPLC separation was carried out using a Waters C18 column (2.1 mm×100 mm, […]) equipped with a solvent delivery system (Waters model 2690, Milford, Mass.).

The term IC50 denotes the concentration that gives 50% inhibition. Read a low IC50 as greater potency in that assay. As for `Cc1ccccc1NC(=O)c1c(NC(=O)C(F)(F)F)sc2c1CCCCC2` [Compound 6aa, 2-(2,2,2-Trifluoro-acetylamino)-5,6,7,8-tetrahydro-4H-cyclohepta[b]thiophene-3-carboxylic acid o-tolylamide], the 50% inhibitory concentration (IC50) at TMEM16B came out at 1.4 µM; in data set [1], 4 µM.
As to `Cc1ccccc1NC(=O)c1c(NC(=O)C(F)(F)Br)sc2c1CCCCC2` [Compound 6bm, 2-(2-Bromo-2,2-difluoro-acetylamino)-5,6,7,8-tetrahydro-4H-cyclohepta[b]thiophene-3-carboxylic acid o-tolylamide], the “Toxic effect (in words)” value in data set [2] (4 mg/kg IP or oral) was “No toxic effect was seen”. The Serum concentration entry is recorded as “greater than 3.5 μM” in data set [2] (4 mg/kg intraperitoneal, for up to 2 h) and “greater than 0.5 μM” in data set [2] (4 mg/kg oral, for 3 h). In addition, the Peak serum concentration in data set [2] (4 mg/kg intraperitoneal, peak at 60 min) amounted to 6.5 µM; in data set [2] (4 mg/kg oral, peak at 2 h), 1.9 µM. For the same compound, the “Detectability in serum (in words)” value in data set [2] (after intraperitoneal (IP) or oral administration (PO)) is “detectable at pharmacologically relevant concentrations”. The “Effect on blood pressure” value in data set [3] was “acute reduction in blood pressure”. Further, in the data set with mouse ileum, the “Effect on spontaneous isometric contractions of ileum” value is on record as “strongly inhibited; also recorded: suppression of isometric smooth muscle contractions”. Further, the Compound remaining in data set [4] (rat liver microsomes + NADPH, 10 uM, 180 min) was about 30%. Further, the “Metabolic stability compared to Ani-9 (in words)” value in data set [4] (time course of compound degradation, rat liver microsomes) is reported as “remarkably greater stability”.
